Results published in patent US20250282749A1 (Tango Therapeutics, Inc., priority 2022, published 2025).

Each compound was assayed on PRMT5 (SDMA) in HAP1 MTAP-deleted cell line (assay: SDMA in-cell western assay, HAP1 MTAP-deleted cell line). Conditions: ratio of SDMA in-cell western IC50 in HAP1 MTAP-intact to IC50 in HAP1 MTAP-deleted cell line.
Assay type: cell-based
Description: HAP1 MTAP-intact is a cell line in which endogenous levels of MTAP are expressed, and HAP1 MTAP-deleted is an MTAP-null cell line.

| Structure (SMILES) | Hap1 MTAP intact/deleted ratio |
| --- | --- |
| CC(C)C(=O)N1C[C@H](c2ccc(F)cc2)N(C(=O)C(=O)Nc2cnc(N)c(C3CC3)c2)C[C@H]1C [Compound 19] | C (an IC50 ratio of less than 15 fold) |

Each compound was assayed on HAP1 MTAP-deleted cell line (assay: viability assay for the MTAP-deleted cell line). Conditions: not given.
Assay type: cell-based

| Structure (SMILES) | IC50 |
| --- | --- |
| Cc1cc(NC(=O)C(=O)N2C[C@@H](C)N(C(=O)C(C)(C)C)C[C@@H]2c2ccc(F)cc2)cnc1N (stereo in doubt) [Compound 106, N-(6-amino-5-methylpyridin-3-yl)-2-(2-(4-fluorophenyl)-5-methyl-4-pivaloylpiperazin-1-yl)-2-oxoacetamide] | < 100 nM |
| Cc1cc(NC(=O)C(=O)N2C[C@@H](C)N(C(=O)C3(C)CC3)C[C@@H]2c2ccc(F)cc2)cnc1N (stereo in doubt) [Compound 108, N-(6-amino-5-methylpyridin-3-yl)-2-(2-(4-fluorophenyl)-5-methyl-4-(1-methylcyclopropanecarbonyl)piperazin-1-yl)-2-oxoacetamide] | < 100 nM |

Same assay, conditions: Homo sapiens

| Structure (SMILES) | IC50 |
| --- | --- |
| Cc1cc(NC(=O)C(=O)N2C[C@H](C)N(C(=O)C3(C(F)(F)F)CC3)C[C@H]2c2ccc(F)cc2)cnc1N [Compound 64] | > 1000 nM |
| C[C@@H]1CN(C(=O)C(=O)Nc2cnc(N)c(C3CC3)c2)[C@H](c2ccc(F)cc2)CN1C(=O)CC1CC1 [Compound 136] | > 1000 nM |
| C[C@@H]1CN(C(=O)C(=O)Nc2cnc(N)c3cn[nH]c23)[C@@H](c2ccccc2)CN1C(=O)C1(C(F)(F)F)CC1 [Compound 155] | < 100 nM |
| Cc1cc(NC(=O)C(=O)N2C[C@@H](C)N(C(=O)C3(C(F)(F)F)CC3)C[C@@H]2c2ccc(F)cc2)cnc1N [Compound 27] | < 100 nM |
| CC(C)C(=O)N1C[C@H](c2ccccc2)N(C(=O)C(=O)Nc2cnc(N)c3cn[nH]c23)C[C@H]1C [Compound 50] | < 100 nM |
| CC(C)CN1C[C@@H](c2ccc(F)cc2)N(C(=O)C(=O)Nc2cnc(N)c(C3CC3)c2)C[C@@H]1C (single isomer, unassigned) [Compound 26] | > 1000 nM |
| CC(C)C(=O)N1C[C@H](c2ccccc2)N(C(=O)C(=O)Nc2cnc(N)c3c2cnn3C)C[C@H]1C [Compound 165, N-(7-Amino-1-methyl-pyrazolo[3,4-c]pyridin-4-yl)-2-oxo-2-[(2S,5R)-5-methyl-4-(2-methylpropanoyl)-2-phenyl-piperazin-1-yl]acetamide] | < 100 nM |
| CC(=O)N1C[C@H](c2ccccc2)N(C(=O)C(=O)Nc2cnc(N)c3c2cnn3C)C[C@H]1C [Compound 168, N-(7-Amino-1-methyl-pyrazolo[3,4-c]pyridin-4-yl)-2-oxo-2-[(2S,5R)-4-acetyl-5-methyl-2-phenyl-piperazin-1-yl]acetamide] | < 100 nM |
| CC(C)OC(=O)N1C[C@H](c2ccc(F)cc2)N(C(=O)C(=O)Nc2cnc(N)c(C3CC3)c2)C[C@@H]1C (stereo in doubt) [Compound 95, isopropyl 4-(2-((6-amino-5-cyclopropylpyridin-3-yl)amino)-2-oxoacetyl)-5-(4-fluorophenyl)-2-methylpiperazine-1-carboxylate] | > 1000 nM |
| Cc1cc(NC(=O)C(=O)N2C[C@@H](C)N(C(=O)C(C)C)C[C@@H]2c2ccc(F)cc2)cnc1N (racemic) [Compound 157, rac-N-(6-amino-5-methylpyridin-3-yl)-2-(2-(4-fluorophenyl)-4-isobutyryl-5-methylpiperazin-1-yl)-2-oxoacetamide] | 100 to 1000 nM |
| C[C@@H]1CN(C(=O)C(=O)Nc2cnc(N)c3c2cnn3C)[C@@H](c2ccccc2)CN1C(=O)C1(C(F)(F)F)CC1 [Compound 166, N-(7-Amino-1-methyl-pyrazolo[3,4-c]pyridin-4-yl)-2-oxo-2-[(2S,5R)-5-methyl-2-phenyl-4-[1-(trifluoromethyl)cyclopropanecarbonyl]piperazin-1-yl]acetamide] | < 100 nM |
| CC(C)OC(=O)N1C[C@@H](c2ccc(F)cc2)N(C(=O)C(=O)Nc2cnc(N)c(C3CC3)c2)C[C@H]1C (stereo in doubt) [Compound 82, isopropyl 4-(2-((6-amino-5-cyclopropylpyridin-3-yl)amino)-2-oxoacetyl)-5-(4-fluorophenyl)-2-methylpiperazine-1-carboxylate] | > 1000 nM |
| CC(C)CN1C[C@H](c2ccc(F)cc2)N(C(=O)C(=O)Nc2cnc(N)c(C3CC3)c2)C[C@@H]1C (single isomer, unassigned) [Compound 48] | > 1000 nM |
| Cc1cc(NC(=O)C(=O)N2C[C@@H](C)N(C(=O)C(C)(C)C)C[C@@H]2c2ccc(F)cc2)cnc1N [Compound 3, N-(6-amino-5-methylpyridin-3-yl)-2-((2S,5R)-2-(4-fluorophenyl)-5-methyl-4-pivaloylpiperazin-1-yl)-2-oxoacetamide] | < 100 nM |
| Cc1cc(NC(=O)C(=O)N2CC(C)N(C(=O)C(C)C)C[C@@H]2c2ccc(F)c(F)c2)cnc1N (stereo in doubt) [Compound 23, N-(6-amino-5-methylpyridin-3-yl)-2-((2S,5R)-2-(3,4-difluorophenyl)-4-isobutyryl-5-methylpiperazin-1-yl)-2-oxoacetamide] | > 1000 nM |
| Cc1cc(NC(=O)C(=O)N2C[C@@H](C)N(C(=O)C3(C)CC3)C[C@@H]2c2ccc(F)cc2)cnc1N [Compound 104, N-(6-amino-5-methylpyridin-3-yl)-2-((2S,5R)-2-(4-fluorophenyl)-5-methyl-4-(1-methylcyclopropanecarbonyl)piperazin-1-yl)-2-oxoacetamide] | < 100 nM |
| C[C@@H]1CN(C(=O)C(=O)Nc2cnc(N)c(C3CC3)c2)[C@@H](c2ccccc2)CN1C(=O)C1(C(F)(F)F)CC1 [Compound 51, N-(6-amino-5-cyclopropylpyridin-3-yl)-2-((2S,5R)-5-methyl-2-phenyl-4-(1-(trifluoromethyl)cyclopropanecarbonyl)piperazin-1-yl)-2-oxoacetamide] | < 100 nM |
| C[C@@H]1CN(C(=O)C(=O)Nc2cncc3[nH]ncc23)C(c2ccc(F)cc2)CN1C(=O)C(C)(C)C (stereo in doubt) [Compound 103, 2-[(2S,5R)-4-(2,2-dimethylpropanoyl)-2-(4-fluorophenyl)-5-methyl-piperazin-1-yl]-2-oxo-N-(1H-pyrazolo[3,4-c]pyridin-4-yl)acetamide] | > 1000 nM |
| COc1ncc(NC(=O)C(=O)N2C[C@H](C)N(C(=O)C3(C)CC3)C[C@H]2c2ccc(F)cc2)cc1C(N)=O [Compound 5, 5-(2-((2R,5S)-2-(4-fluorophenyl)-5-methyl-4-(1-methylcyclopropanecarbonyl)piperazin-1-yl)-2-oxoacetamido)-2-methoxynicotinamide] | 100 to 1000 nM |
| COc1ncc(NC(=O)C(=O)N2C[C@@H](C)N(C(=O)C3(C)CC3)C[C@@H]2c2ccc(F)cc2)cc1C(N)=O [Compound 102, 5-(2-((2S,5R)-2-(4-fluorophenyl)-5-methyl-4-(1-methylcyclopropanecarbonyl)piperazin-1-yl)-2-oxoacetamido)-2-methoxynicotinamide] | > 1000 nM |
| C[C@@H]1CN(C(=O)C(=O)Nc2cnc(N)c3cn[nH]c23)[C@@H](c2ccccc2)CN1C(=O)C1(C)CC1 (racemic) [Compound 161, N-(4-Amino-1H-pyrazolo[4,3-c]pyridin-7-yl)-2-oxo-2-[rac-(2S,5R)-5-methyl-4-(1-methylcyclopropanecarbonyl)-2-phenyl-piperazin-1-yl]acetamide] | < 100 nM |
| C[C@H]1CN(C(=O)C(=O)Nc2cnc(N)c(C3CC3)c2)[C@@H](c2ccc(F)cc2)CN1C(=O)CC1CC1 [Compound 56] | > 1000 nM |
